Assay results from patent publication US8663669B2, “Pesticide treatment of soils or substrates with sulphur compounds” (Arkema France, priority 2002, dated 2014).

Experiments:
[1] = test system: Sclerotium rolfsii; experiment: Fungicidal efficacy by gassing, sclerotia; format: cell-based; design: Vitality score Nm (over 19 days): scale not given here; Reduction in viability RV / Reduction in vitality score RNm: unit not given here; conditions: for Reduction in viability RV / Reduction in vitality score RNm: compared with the control
Method: These four organisms are the following:
Sclerotium rolfsii: a fungus which is also polyphagous and which is found, for example, on melon and courgette crops.
• Sclerotinia sclerotiorum: sclerotia • Sclerotium rolfsii: sclerotia • Rhizoctonia solani: colonized barley grains (mycelium and sclerotia) • Phytophthora cactorum: colonized millet grains (mycelium, sporangia and oospores) Preparation of the Fungi (24 h Before the Gassing Operation) 1. Preparation of the sclerotia of Sclerotinia sclerotiorum and of Sclerotium rolfsii: The fungi are cultured on malt agar medium until the sclerotia are obtained. The sclerotia are collected in a sterile manner and stored dry in empty Petri dishes until they are used. The sclerotia used for the trial are over 3 months old and are perfectly dormant. 2. Preparation of Phytophthora cactorum and of Rhizoctonia solani: The millet and barley used for the multiplication of the two fungi are moistened with ultrapure water by immersing for 24 hours. The grains are then slightly drained and then distributed into flasks and autoclaved (3 autoclavings at 110° C. for 20 minutes, 3 times at 24 hour intervals). Fragments of fungal culture are introduced into the flasks which are then incubated at 22° C.±2° C. (white light 18 h) until homogeneous colonization is obtained. The grains are then removed from the flasks in a sterile manner, dried in the sterile stream of a safety cabinet and then stored in the dry state until they are used. Conditions for Gassing and for Desorption
All the batches of fungi to be treated are placed for a few hours at the trial temperature (20° C.). Between 35 and 300 units of fungi or “propagules” (grains or sclerotia) are subjected to gassing during each trial.
Each fumigation chamber comprising to one or more species of fungi corresponds to a glass round-bottomed flask which is impervious to the gas and has a volume of 11 litres. Each round-bottomed flask is equipped with branch connections, one at the bottom for introducing the liquid DMDS, one at the top for collecting the air sample with a syringe.
Before introducing the gas, a partial vacuum (−500 mbar) is established in the round-bottomed flask with a vacuum pump. This makes it possible, on the one hand, to avoid the phenomenon of excess pressure due to the expansibility of DMDS in the round-bottomed flask and, on the other hand, to promote better homogeneity of the air-gas mixture in the first few seconds which follow injection. The DMDS (weighed accurately to the mg) is injected with a syringe, in liquid form, through the bottom branch connection, that is to say under the screen placed at half height of the round-bottomed flask and supporting the batches of fungi. After introducing the product, the internal pressure of the round-bottomed flask is re-established at atmospheric pressure. A magnetic stirrer operates during the entire duration of the treatment in order to properly homogenize the air-gas mixture.
At the end of the gassing, the cover for the round-bottomed flask is removed. One minute after this operation, the batches of fungi gassed are taken out and left in the open air for 15 minutes for desorption of the DMDS. They are then transferred into a Petri dish, the latter remaining open for 5 minutes to allow perfect desorption of the gas. […]

[2] = test system: lettuce (variety Sprintia); experiment: Phytotoxicity on lettuce, in a greenhouse; format: in vivo; conditions: 150 kg/ha (formulation A)
Description: Absence of phytotoxicity on lettuce of DMDS, applied at 150 kg/ha, in the open, in a greenhouse.
Lettuce variety: Sprintia
Treatment: DMDS is applied in the form of formulation A with the aid of a jet sprayer, and then incorporated over a depth of about 5 cm with a rotary hoe. The soil is then covered with a black polyethylene film.
Planting: 7 days after the treatment, at the rate of 160 000 plants/ha
Harvesting: 2 months and 20 days after planting.

[3] = test system: larvae of Meloidogyne arenaria; experiment: Nematicidal in vitro test on second-stage juvenile larvae; format: in vivo; conditions: for Immobility rate after 48 h: 24 h in solution then 24 h in pure water; for Immobility rate after 24 h: aqueous solution
Method: The second-stage juvenile larvae (the free and infesting stage) are immersed for 24 hours in the test solution and then the number of larvae paralysed are counted before transferring them into pure water for another 24 hours. At the end of the 48 hours which have thus elapsed, the larvae paralysed are again counted and the larvae truly dead are counted the next day.
The breeding of the nematodes was carried out on tomato plants. The tests were carried out with, aqueous solutions of DMDS at 0.0001%, 0.1%, 1% and 5% by mass, of DPDS at 1%, 5% and 10% by mass, and of allicin at 0.0003%, 0.0015% and 0.003% by mass, compared with a control consisting of pure water, and repeated five times. The ovicidal activity was also evaluated according to the same modalities, by counting the number of hatchings after 5 to 20 days following exposure to the products.

[4] = CT 1 050 g·h/m^3 (C 15.91 g/m^3, T 66 h)
[5] = CT 1 402 g·h/m^3 (C 21.24 g/m^3, T 66 h)
[6] = CT 1 450 g·h/m^3 (C 30.96 g/m^3, T 48 h)
[7] = CT 1 899 g·h/m^3 (C 28.77 g/m^3, T 66 h)
[8] = CT 1 981 g·h/m^3 (C 30.02 g/m^3, T 66 h)
[9] = CT 2 460 g·h/m^3 (C 51.25 g/m^3, T 48 h)
[10] = CT 2 471 g·h/m^3 (C 37.44 g/m^3, T 66 h)
[11] = CT 2 837 g·h/m^3 (C 42.98 g/m^3, T 66 h)
[12] = CT 2 974 g·h/m^3 (C 45.06 g/m^3, T 66 h)
[13] = CT 3 169 g·h/m^3 (C 48.02 g/m^3, T 66 h)
[14] = CT 3 467 g·h/m^3 (C 52.53 g/m^3, T 66 h)
[15] = CT 419 g·h/m^3 (C 17.46 g/m^3, T 24 h)
[16] = CT 625 g·h/m^3 (C 26.04 g/m^3, T 24 h)
[17] = CT 703 g·h/m^3 (C 29.29 g/m^3, T 24 h)
[18] = CT 907 g·h/m^3 (C 37.79 g/m^3, T 24 h)

`CSSC` [DMDS, dimethyl disulphide] was tested, and the “Viability V” value [1, 4] was 27.6%, the “Vitality score Nm (over 19 days)” value [1, 4] was 2.1 and the “Reduction in viability RV” value [1, 4] was 68.0. The “Reduction in vitality score RNm” value [1, 4] was 71.1, the “Viability V” value [1, 5] was 18.3% and the “Vitality score Nm (over 19 days)” value [1, 5] was 1.3. For the same molecule, the “Reduction in viability RV” value [1, 5] was 78.7, the “Reduction in vitality score RNm” value [1, 5] was 81.8 and the “Viability V” value [1, 6] was 15.0%. The “Vitality score Nm (over 19 days)” value [1, 6] was 0.7, the “Reduction in viability RV” value [1, 6] was 83.2 and the “Reduction in vitality score RNm” value [1, 6] was 91.8. For the same molecule, the “Viability V” value [1, 7] was 3.1%, the “Vitality score Nm (over 19 days)” value [1, 7] was 0.2 and the “Reduction in viability RV” value [1, 7] was 96.4. The “Reduction in vitality score RNm” value [1, 7] was 96.8, the “Viability V” value [1, 8] was 4.3% and the “Vitality score Nm (over 19 days)” value [1, 8] was 0.3. For the same molecule, the “Reduction in viability RV” value [1, 8] was 95.0, the “Reduction in vitality score RNm” value [1, 8] was 95.1 and the “Viability V” value [1, 9] was 10.0%. For the same molecule, the “Vitality score Nm (over 19 days)” value [1, 9] was 0.4, the “Reduction in viability RV” value [1, 9] was 88.8 and the “Reduction in vitality score RNm” value [1, 9] was 94.7. The “Viability V” value [1, 10] was 0%, the “Vitality score Nm (over 19 days)” value [1, 10] was 0 and the “Reduction in viability RV” value [1, 10] was 100. For the same molecule, the “Reduction in vitality score RNm” value [1, 10] was 100, the “Viability V” value [1, 11] was 0% and the “Vitality score Nm (over 19 days)” value [1, 11] was 0. The “Reduction in viability RV” value [1, 11] was 100, the “Reduction in vitality score RNm” value [1, 11] was 100 and the “Viability V” value [1, 12] was 0%. The “Vitality score Nm (over 19 days)” value [1, 12] was 0, the “Reduction in viability RV” value [1, 12] was 100 and the “Reduction in vitality score RNm” value [1, 12] was 100. For the same molecule, the “Viability V” value [1, 13] was 0%, the “Vitality score Nm (over 19 days)” value [1, 13] was 0 and the “Reduction in viability RV” value [1, 13] was 100. For the same molecule, the “Reduction in vitality score RNm” value [1, 13] was 100, the “Viability V” value [1, 14] was 0% and the “Vitality score Nm (over 19 days)” value [1, 14] was 0. For the same molecule, the “Reduction in viability RV” value [1, 14] was 100, the “Reduction in vitality score RNm” value [1, 14] was 100 and the “Viability V” value [1, 15] was 59.1%. For the same molecule, the “Vitality score Nm (over 19 days)” value [1, 15] was 5.1, the “Reduction in viability RV” value [1, 15] was 33.7 and the “Reduction in vitality score RNm” value [1, 15] was 40.9. The “Viability V” value [1, 16] was 53.7%, the “Vitality score Nm (over 19 days)” value [1, 16] was 4.8 and the “Reduction in viability RV” value [1, 16] was 39.8. The “Reduction in vitality score RNm” value [1, 16] was 44.3, the “Viability V” value [1, 17] was 51.4% and the “Vitality score Nm (over 19 days)” value [1, 17] was 4.4. The “Reduction in viability RV” value [1, 17] was 42.4, the “Reduction in vitality score RNm” value [1, 17] was 48.7 and the “Viability V” value [1, 18] was 16.2%. The “Vitality score Nm (over 19 days)” value [1, 18] was 1.4, the “Reduction in viability RV” value [1, 18] was 81.8 and the “Reduction in vitality score RNm” value [1, 18] was 84.2. The “Visual observations on the field: sign of phytotoxicity” value ([2]; 1 and 2 months after planting) was “no sign of phytotoxicity”, the “Average weight of the lettuce at harvest” value ([2]; harvest 2 months and 20 days after planting, control 490 g) was 505 g and the “Mortality rate after 72 h” value ([3]; concentration by mass 1 %) was 80%. For the same molecule, the “Immobility rate after 48 h” value ([3]; concentration by mass 1 %) was 84%, the “Immobility rate after 24 h” value ([3]; concentration by mass 1 %) was 72% and the “Mortality rate after 72 h” value ([3]; concentration by mass 5 %) was 98%. The “Immobility rate after 48 h” value ([3]; concentration by mass 5 %) was 98%, the “Immobility rate after 24 h” value ([3]; concentration by mass 5 %) was 97% and the “Nematostatic and nematicidal activity” value ([3]; concentration of greater than or equal to 1%) was “high nematostatic and nematicidal activity”. The Nematicidal activity ([3]; concentration of less than 1%) was “no nematicidal activity” and the Nematostatic activity ([3]; concentration of less than 1%) was “very weak nematostatic activity”.
